{"source": "patent US12414267B2", "about": "“Fluorinated aromatics and methods of using same” (3M INNOVATIVE PROPERTIES COMPANY, priority 2019, dated 2025)"}
{"test": "Log Kow (octanol/water partition coefficient) by HPLC, OECD Test Method 117", "assay_type": "physicochemical", "conditions": "OECD 117", "experimental": "Values of Log Kow (octanol/water partition coefficients) were determined by HPLC using the method described in Organization for Economic Cooperation and Development (OECD) Test Method 117, “Partition Coefficient (n-octanol/water), HPLC Method.”"}
{"smiles": "FC(F)(F)C(=C(Oc1ccccc1)C(F)(F)C(F)(F)F)C(F)(F)F", "note": "[Example 5, ((1,1,1,4,4,5,5,5-Octafluoro-2-(trifluoromethyl)pent-2-en-3-yl)oxy)benzene]", "Log Kow": 5.5}
{"smiles": "F/C(Oc1c(F)c(F)c(F)c(F)c1F)=C(/F)C(F)(F)F", "note": "[Example 2, (E)-1,2,3,4,5-Pentafluoro-6-((perfluoroprop-1-en-1-yl)oxy)benzene]", "Log Kow": 4.7}
{"smiles": "F/C(=C(/C(F)(F)F)C(F)(Oc1c(F)c(F)c(F)c(F)c1F)C(F)(F)C(F)(F)F)C(F)(C(F)(F)F)C(F)(F)F", "note": "(stereo not drawn) [Example 3, (E)-1,2,3,4,5-Pentafluoro-6-((1,1,1,2,2,3,5,6,7,7,7-undecafluoro-4,6-bis(trifluoromethyl)hept-4-en-3-yl)oxy)benzene]", "Log Kow": ">6.4"}
{"smiles": "FC(F)(F)C(=C(Oc1cccc(C(F)(F)F)c1)C(F)(F)C(F)(F)F)C(F)(F)F", "note": "[Example 7, 1-((1,1,1,4,4,5,5,5-Octafluoro-2-(trifluoromethyl)pent-2-en-3-yl)oxy)-3-(trifluoromethyl)benzene]", "Log Kow": 6.1}
{"smiles": "Fc1c(F)c(F)c(OC(=C(C(F)(F)F)C(F)(F)F)C(F)(F)C(F)(F)F)c(F)c1F", "note": "[Example 1, 1,2,3,4,5-Pentafluoro-6-[3,3,3-trifluoro-1-(1,1,2,2,2-pentafluoroethyl)-2-(trifluoromethyl)prop-1-enoxy]benzene]", "Log Kow": 6.1}
{"smiles": "F/C(=C(/C(F)(F)F)C(F)(Oc1ccccc1)C(F)(F)C(F)(F)F)C(F)(C(F)(F)F)C(F)(F)F", "note": "(stereo not drawn) [Example 4, (E)-((1,1,1,2,2,3,5,6,7,7,7-Undecafluoro-4,6-bis(trifluoromethyl)hept-4-en-3-yl)oxy)benzene+isomers]", "Log Kow": ">6.4"}
